Where two headings read alike, the source gives them in different places. Where no end group is shown, it is not given here.
B1: KFK KFK KFK KFK KFK KFK KFK KFK KFK KFK KFK KFK KFK KFK KFK KFK KFK KFK KFK KFK KFK (peptide)
chain: KFKKFKKFKKFKKFKKFKKFKKFKKFKKFKKFKKFKKFKKFKKFKKFKKFKKFKKFKKFKKFK
modifications: Periodic Peptide
B2: FKA FKA FKA FKA FKA FKA FKA FKA FKA FKA FKA FKA FKA FKA FKA FKA FKA FKA FKA FKA FKA (peptide)
chain: FKAFKAFKAFKAFKAFKAFKAFKAFKAFKAFKAFKAFKAFKAFKAFKAFKAFKAFKAFKAFKA
modifications: Periodic Peptide

Legend:
[1] = tested on: P. aeruginosa ATCC 15442; assay: HMARQ biocidal kill activity; format: cell-based; details: P. aeruginosa ATCC 15442 (gram−)
Description: (§1) Biocide efficacy protocols were improved by reducing sample size, organizing the test material into an array format, implementing most probable number (MPN) quantitation and using multi-channel liquid handling equipment. We call the new method “high-throughput microanalysis and rapid quantitation” or “HMARQ.” HMARQ is directly applicable to current industrial efficacy tests such as multi-cycle preservation challenge or time course disinfection tests.
(§2) HMARQ is performed in a high throughput plate, such as 96-well microtiter plates. Typical sample volumes have been reduced down to 200 to 300 μL, but can be reduced further if desired. In these samples, no more than 10% of the total volume will be composed of the biocide and organism solution, and all non-matrix additions are normalized for all samples.
(§3) The sample matrix is first inoculated with the desired concentration of microorganisms. Inoculated sample matrix is then added to the 96-well assay block containing the biocide(s) under study. Each sample block contains biocide treated samples and untreated control samples (lacking biocide). Once the samples are prepared, the entire block of samples is mixed by vortexing until each sample is homogenous. In general, the study starts once mixing is complete, and samples are removed as required for the analysis. When Kill Time testing (rate of biocide activity) is performed, the microorganisms are added after biocide addition to the samples, allowing for rapid mixing and analysis.
(§4) Bacterial concentration (CFU/mL) is determined using the most probable number method (MPN). The contaminated solution is serially diluted until the “no growth” endpoint is reached. The endpoint represents the MPN and is expressed in units of the bacterial concentration. A serial 1:10 dilution will yield a bacterial concentration resolution of 1 log and the log reduction is determined by comparing the concentration of organisms in a treated sample to the concentration of organisms in untreated samples. For example, if a sample requires four 1:10 dilutions before bacterial growth is lost then the MPN for bacterial concentration in the sample is less than or equal to 1×10^4 CFU/mL (1E4). […] This method of enumeration is generally applicable to all non-filamentous microorganisms.
(§5) Media included Tryptic Soy Broth (TSB) for bacteria and Sabouraud Dextrose Broth (SDB) for fungi. These are available commercially and prepared according to the manufacturers instructions. Indicator medium was TSB/R for bacteria and SDB/R for fungi. These were made by addition of 50 μM filter sterilized Resazurin to the sterilized and cooled medium. Tryptic Soy agar plates (TSA) and SDA slants were used to provide inoculant for bacterial and fungal cultures. The indicator dye appeared pink or white when bacterial growth was present.
(§6) Using the HMARQ test described above, periodic peptides were generated and tested for Kill Activity. In this experiment, a broader range of peptidezs were tested for activity. Units are expressed as ppm (μg/mL) needed for 3.5 log kill at 15 min or 24 hour and the results are shown below.

[2] = tested on: Staph. aureus ATCC 6538; assay: HMARQ biocidal kill activity; format: cell-based; details: Staph. aureus ATCC 6538 (gram+)
Description: as §1, §2, §3, §4, §5, §6

[3] = tested on: Red blood cells (RBC); assay: Red blood cell toxicity; format: cell-based
[4] = Red blood cell toxicity; format: cell-based; details: red blood cells (RBC)
[5] = tested on: HeLa cell line; assay: HeLa MTS cellular reduction toxicity assay; format: cell-based; details: for TX50: 24 h, MTS
Description: The RBC protocol was from Blondelle (2000) and is described generally as follows: The toxicity toward the HeLa cell line was determined using a MTS (3-(4-5-dimethylthiazol-2-yl)-5-(3carboxymethoxyphenyl)-2-(4-sulfophenyl)-2H-tetrazolium, sodium salt) cellular reduction assay. MTS (2 mg/mL) was prepared in Dulbecco PBS (pH 7.35), filtered, aliquoted and stored at minus 20° C. In 96 well flat bottomed plates, cell suspensions (250 μL of 6×10^4 cell/mL in each well) were incubated for 48 h at 37° C. (5% CO2 incubator). The peptides (50 μL) were then added to the cell monolayer (following aspiration of the media from each well and addition of 50 μL of Dulbecco's Modified Eagles Medium) at varying concentrations derived from serial 2-fold dilutions, and the plates incubated for 24 h at 37° C. (5% CO2 incubator). Proliferation was then determined by adding a solution of phenazine methosulfate (PMS: 0.92 mg/mL in DPBS) to MTS at a 1:20 ration just prior to the assay. Twenty microliters MTS-PMS solution were added to each well and the plates incubated for 1 h at 37° C. (5% CO2 incubator). The relative percent toxicity was determined by comparing the absorbance at 490 nm of each peptide to the absorbance of cells without peptide. The TX50 (concentration required for 50% toxicity) was calculated using a sigmoidal curve fitting software (Graphpad Prism).

[6] = tested on: C. albicans 10231; format: cell-based; details: 10231
Description: (§7) The MIC and IC50 values were determined by a broth microdilution method according to guidelines of the National Committee for Clinical Laboratory Standard as follows: In 96-well tissue culture plates, a fixed volume of bacterial suspension in 2× broth (as defined below) was added to the mixtures or individual compounds dispensed at concentrations varying from 1,000 to 1 μg/ml derived from serial two-fold dilutions in sterile water. The bacteria tested were P. aeruginosa American Type Culture Collection Number (ATCC) 10145, E. coli ATCC 2592, and S. aureus (methicillin reseistant) ATTC 33591.
(§8) The plates were incubated overnight, and the relative percent growth determined by optical density at 620 nm (OD620) using a TITERTEK MULTISKAN PLUS™. […] IC50 values were calculated using a sigmoidal curve fitting software program (GRAPHPAD,™ ISI Software,™ San Diego, Calif.). All samples were tested in duplicate and each assay was repeated at least twice. In the following table, KFAK is the repeat unit and multimers of KFAK were tested. IC50 and MIC are reported in μg/ml.
(§9) Because the antibacterial activity of the periodic peptides was so promising, further experiments were performed to determine if the periodic peptides also had antifungal activity. The experimental design was similar to that above, with accommodation made for fungal growth requirements, including the use of Sabouraud Dextrose Broth (SDB) and Sabouraud Dextrose Agar (SDA) slants.

[7] = tested on: Cr. Neoformans 32045; format: cell-based
Description: as §7, §8, §9

[8] = tested on: S. aureus (methicillin resistant) ATCC 33591
Description: (§10) The bacteria tested were P. aeruginosa American Type Culture Collection Number (ATCC) 10145, E. coli ATCC 2592, and S. aureus (methicillin reseistant) ATTC 33591.
(§11) All experiments were compared to bacterial growth under optimal growth conditions (37° C., pH 7.0, absence of additional salt, growth media—referred to as standard growth conditions). In each plate, no growth control (media alone), positive growth control (bacteria with no test sample), positive antimicrobial controls (agents with known antimicrobial activity) and test compounds were tested.
(§12) The plates were incubated overnight, and the relative percent growth determined by optical density at 620 nm (OD620) using a […] […] PLUS™. […] All samples were tested in duplicate and each assay was repeated at least twice. […] IC50 and MIC are reported in μg/ml.

[9] = tested on: E. coli ATCC 2592; details: ATCC 2592
Description: as §10, §11, §12

[10] = tested on: P. aeruginosa ATCC 10145; details: ATCC 10145
Description: as §10, §11, §12

[11] = RBCs, concentration required for 50% toxicity, read-out: TX50
[12] = S. aureus (methicillin resistant) 33591, gram+

| Molecule | % kill at 250 μg/ml [3] | % kill at 500 μg/ml [5] | TX50 [5] | IC50 [6] | MIC [6] | IC50 [7] | MIC [7] | IC50 ([8]; ATCC 33591) | MIC ([8]; ATCC 33591) | IC50 [9] | MIC [9] | IC50 [10] | MIC [10] | further results |
| --- | --- | --- | --- | --- | --- | --- | --- | --- | --- | --- | --- | --- | --- | --- |
| AKKFAKKFAKKFAKKFAKKFAKKF [AKKF (6), AKKF AKKF AKKF AKKF AKKF AKKF] | 100% | 7.3% | 33 µg/mL | 225 µg/mL | 250 to 500 µg/mL | 11 µg/mL | 16 to 32 µg/mL | 41 µg/mL | 125 to 250 µg/mL | 8 µg/mL | 16 to 32 µg/mL | 21 µg/mL | 25 µg/mL | ppm needed for 3.5 log kill at 15 min [1]: >500 ppm; ppm needed for 3.5 log kill at 24 hr [1]: 16 ppm; ppm needed for 3.5 log kill at 15 min [2]: >500 ppm; ppm needed for 3.5 log kill at 24 hr [2]: 125 ppm; HC50 at 24 h [4]: 39 µg/mL |
| FKLRAKIKVRLRAKIKL [D4E1, FKLRAKIKVRLRAKIKL, reference compound] | 77.2% |  |  | 70.6 µg/mL | 80 to 125 µg/mL | 1.8 µg/mL | 8 to 16 µg/mL | 6.3 µg/mL | 32 to 62 µg/mL | 3.3 µg/mL | 8 to 16 µg/mL | 6.2 µg/mL | 8 to 16 µg/mL | HC50 at 24 h [4, 11]: 134 µg/mL |
| H-KFAKKFAKKAAKKAAK-OH [PBF16b, KFAKKFAKKAAKKAAK, reference compound] |  |  |  |  |  |  |  |  |  |  |  | >250 µg/mL | >250 µg/mL |  |
| H-KFAKKFAKKFAKKAAK-OH [PBF16a, KFAKKFAKKFAKKAAK, reference compound] |  |  |  |  |  |  |  |  |  |  |  | >250 µg/mL | >250 µg/mL |  |
| H-KFAKKFAKKFAKKFAKKFAKKFAK-OH [KFAK (6), KFAK KFAK KFAK KFAK KFAK KFAK] | 7.3% | 30.5% | 457.3 µg/mL | 72 µg/mL | 80 to 125 µg/mL | 5.8 µg/mL | 16 to 32 µg/mL | 38.7 µg/mL | 125 to 250 µg/mL | 4 µg/mL | 8 to 16 µg/mL | 5.6 µg/mL |  | HC50 at 24 h [4]: > 250 µg/mL |
| KFAKKAAKKFAKKAAK [PBF16c, KFAKKAAKKFAKKAAK, reference compound] |  |  |  |  |  |  |  |  |  |  |  | >250 µg/mL | >250 µg/mL |  |
| KFAKKFAKKFAKKFAK [KFAK (4), KFAK KFAK KFAK KFAK] |  | 76% | >500 µg/mL | 70 µg/mL | 90 to 125 µg/mL | 5.3 µg/mL | 6.0 to 8.0 µg/mL |  |  | 46 µg/mL | 62 to 125 µg/mL |  |  | % kill at 250 μg/ml ([3]; RBCs, 250 μg/ml): 0.1%; HC50 at 24 h [4, 11]: > 250 µg/mL; IC50 [8, 12]: >250 µg/mL; MIC [8, 12]: >250 µg/mL |
| KFAKKFAKKFAKKFAKKFAK [KFAK (5), KFAK KFAK KFAK KFAK KFAK] |  | 89% | >500 µg/mL | 66 µg/mL | 90 to 125 µg/mL | 5 µg/mL | 8 to 16 µg/mL |  |  | 6 µg/mL | 16 to 32 µg/mL |  |  | % kill at 250 μg/ml ([3]; RBCs, 250 μg/ml): 4.1%; HC50 at 24 h [4, 11]: > 250 µg/mL; IC50 [8, 12]: >250 µg/mL; MIC [8, 12]: >250 µg/mL |
| KFAKKFAKKFAKKFAKKFAKKFAKKFAK [KFAK (7), KFAK KFAK KFAK KFAK KFAK KFAK KFAK] | 13.7% | 13.0% | 204.1 µg/mL | 82 µg/mL | 100 to 125 µg/mL |  | 32 to 62 µg/mL | 108.8 µg/mL | >250 µg/mL | 8 µg/mL | 32 to 62 µg/mL |  |  | TX50 [3]: >250 µg/mL; HC50 at 24 h [4]: > 250 µg/mL |
| B1 |  |  |  |  |  |  |  |  |  |  |  |  |  | ppm needed for 3.5 log kill at 15 min [1]: 31 ppm; ppm needed for 3.5 log kill at 24 hr [1]: 63 ppm; ppm needed for 3.5 log kill at 15 min [2]: >500 ppm; ppm needed for 3.5 log kill at 24 hr [2]: 250 ppm |
| B2 |  |  |  |  |  |  |  |  |  |  |  |  |  | ppm needed for 3.5 log kill at 15 min [1]: 8 ppm; ppm needed for 3.5 log kill at 24 hr [1]: 16 ppm; ppm needed for 3.5 log kill at 15 min [2]: 4 ppm; ppm needed for 3.5 log kill at 24 hr [2]: 125 ppm |

From patent US7091185B2, “Periodic antimicrobial peptides” (Dow Global Technologies Inc., priority 2003, dated 2006)
